# Test results from patent US20220098320A1, “SENOLYTIC CAR-T CELLS TARGETING UPAR, A CELL SURFACE AND SECRETED […]” (MEMORIAL SLOAN KETTERING CANCER CENTER, priority 2019, published 2022).
# Tests used:
# suPAR [1] = experiment: CCl4-induced liver fibrosis: plasma suPAR; assay type: in vivo; settings: CCl4-treated mice vs untreated controls; FIGS. 5B and 16D
# Description: In vivo induction of liver fibrosis. C57BL/6J mice were treated twice a week with 12 consecutive intraperitoneal (i.p.) injections of 1 ml/kg carbon tetrachloride (CCl4) to induce liver fibrosis. For murine CAR T cell studies, cyclophosphamide (200 mg/kg) was administered 24 hours before T cell injection. Mice received 3×10^6 CAR^+ T cells or untransduced T cells and CCl4 was continuously administered at the same dose and interval after T cell injection until day 20 post CAR injection. Animals were sacrificed 48-72 h after the last CCl4 injection. NSG mice were treated twice a week with 8 consecutive i.p. injections of 1 ml/kg CCl4 to induce liver fibrosis. For human CAR T cell studies, mice received 0.5×10^6 CAR T cells or untransduced T cells and CCl4 was continued once a week after CAR T injection until day 10 post CAR administration, when animals were sacrificed 48-72 h after the last CCl4 injection. Venous blood was collected by facial vein puncture.
# (§1) Detection of suPAR levels. suPAR levels from cell culture supernatant of murine plasma were evaluated by enzyme-linked immunosorbent assay (ELISA) according to the manufacturer's protocol (R&D systems, DY531 (mouse) or DY807 (human)).
# suPAR [2] = experiment: doxorubicin-induced senescence in vivo: plasma suPAR by ELISA; design: species or system C57BL/6J mice; settings: doxorubicin i.p. day 0 and day 10; blood at days 10 and 20; FIG. 7D
# Description: In vivo induction of doxorubicin-Induced senescence. […] Venous blood was collected by facial vein puncture at days 10 and 20 after initial doxorubicin administration. Detection of suPAR levels. suPAR levels from cell culture supernatant of murine plasma were evaluated by enzyme-linked immunosorbent assay (ELISA) according to the manufacturer's protocol (R&D systems, DY531 (mouse) or DY807 (human)).
# suPAR [3] = experiment: bleomycin-induced lung fibrosis: plasma suPAR; assay type: in vivo, NSG mice; settings: intratracheal bleomycin; FIGS. 9C-9E
# Description: as §1
molecule,measurement,setting,value
"ClC(Cl)(Cl)Cl [CCl4, carbon tetrachloride]",plasma suPAR levels,suPAR [1],elevation of plasma suPAR levels relative to untreated controls
COc1cccc2c1C(=O)c1c(O)c3c(c(O)c1C2=O)C[C@@](O)(C(=O)CO)C[C@@H]3O[C@H]1C[C@H](N)[C@H](O)[C@H](C)O1 [doxorubicin],plasma levels of suPAR,suPAR [2],time-dependent and dose-dependent correlation with the plasma levels of suPAR
bleomycin,plasma levels of suPAR,suPAR [3],Higher levels of suPAR
